Measured values as given in the supplement of paper PMC10307832.

Assays:
Experiment in all cases: relative viability (nuclei count vs DMSO), 5 days (fraction); higher = more cells survive
[1] = compound: Cc1nc(C(=O)NCC(=O)O)c(O)c2ccc(Oc3ccccc3)cc12 [FG-4592] + CC(C)C[C@H](NC(=O)[C@H](Cc1ccccc1)NC(=O)c1cnccn1)B(O)O [Bortezomib] (partner 0.002 µM)
Summary of the method: (§1)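 Five library-drug doses in √10 steps were combined with a fixed anchor-drug dose, or a single drug was given alone, by pin tool to lung cancer cell lines in 1536-well plates the day after seeding. Nuclei were stained and counted after 5 days. Relative viability is the nuclei count in treated wells over that in vehicle wells, taken as the median of duplicate plates.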

[2] = compound: CC1=CC(=C(N1C2=CC=C(C=C2)Cl)C)C(=O)CN3CCCCC3 [IU1-47] + Cc1cc(Nc2cc(N3CCN(C)CC3)nc(Sc3ccc(NC(=O)C4CC4)cc3)n2)n[nH]1 [Tozasertib] (partner 0.1 µM)
Summary of the method: as §1

[3] = compound: Cc1nc(C(=O)NCC(=O)O)c(O)c2ccc(Oc3ccccc3)cc12 [FG-4592] + COc1cc2c(Oc3ccc(NC(=O)C4(C(=O)Nc5ccc(F)cc5)CC4)cc3F)ccnc2cc1OCCCN1CCOCC1 [Foretinib] (partner 0.25 µM)
Summary of the method: as §1

[4] = compound: Cc1nc(C(=O)NCC(=O)O)c(O)c2ccc(Oc3ccccc3)cc12 [FG-4592] + C[C@]1(O)C[C@@H](c2nc(-c3ccc4ccc(-c5ccccc5)nc4c3)c3c(N)nccn32)C1 [Linsitinib] (partner 1 µM)
Summary of the method: as §1

Row | Cell Line | relative viability ([1]; first compound 0.08 µM) | relative viability ([1]; first compound 0.253 µM) | relative viability ([1]; first compound 0.8 µM) | relative viability ([1]; first compound 2.53 µM) | relative viability ([1]; first compound 8 µM) | relative viability ([2]; first compound 0.08 µM) | relative viability ([2]; first compound 0.253 µM) | relative viability ([2]; first compound 0.8 µM) | relative viability ([2]; first compound 2.53 µM) | relative viability ([2]; first compound 8 µM) | relative viability ([3]; first compound 0.08 µM) | relative viability ([3]; first compound 0.253 µM) | relative viability ([3]; first compound 0.8 µM) | relative viability ([3]; first compound 2.53 µM) | relative viability ([3]; first compound 8 µM) | relative viability ([4]; first compound 0.08 µM) | relative viability ([4]; first compound 0.253 µM) | relative viability ([4]; first compound 0.8 µM) | relative viability ([4]; first compound 2.53 µM) | relative viability ([4]; first compound 8 µM)
1 | NCI-H520 | 0.53 | 0.612 | 0.496 | 0.459 | 0.31 | 0.429 | 0.419 | 0.471 | 0.461 | 0.363 | 0.497 | 0.639 | 0.674 | 0.868 | 0.605 | 0.85 | 0.895 | 1.04 | 0.953 | 0.764
2 | NCI-H596 | 0.919 | 0.808 |  | 0.994 | 0.983 | 0.935 | 0.978 | 0.864 | 0.887 | 0.954 | 0.814 | 0.617 | 0.764 | 0.867 | 0.465 | 1.28 | 1.01 |  | 1.04 | 0.983
3 | NCI-H647 | 0.977 | 0.846 | 0.844 | 0.912 | 0.958 | 0.372 | 0.309 |  | 0.248 | 0.306 | 1.19 | 1.07 | 1.18 | 0.815 | 0.782 | 1.18 | 1.1 | 1.3 | 1.32 | 1.16
4 | NCI-H650 | 0.903 | 0.771 | 0.525 | 0.66 | 0.807 | 0.759 | 0.824 | 0.751 | 0.779 | 0.698 | 0.997 | 0.961 | 0.882 | 0.991 | 0.861 | 0.884 | 0.704 | 0.669 | 0.724 | 0.631
5 | NCI-H661 | 0.637 | 0.858 | 0.723 | 0.682 | 0.638 | 0.354 | 0.373 | 0.355 | 0.358 | 0.375 | 1.06 | 0.956 | 1.09 | 0.987 | 0.938 | 0.475 | 0.588 | 0.55 | 0.678 | 0.446
6 | NCI-H727 | 0.738 | 0.698 | 0.83 | 0.797 | 1.07 | 0.655 | 0.562 | 0.589 | 0.58 | 0.568 | 0.934 | 0.617 | 1.08 | 0.999 | 1.11 | 0.298 | 0.307 | 0.3 | 0.268 | 0.271
7 | NCI-H838 | 0.893 | 0.923 | 0.697 | 0.663 | 0.747 | 0.268 | 0.28 | 0.297 | 0.301 | 0.248 | 1.06 | 0.922 | 1.08 | 1.06 | 0.969 | 1.1 | 0.941 | 1.01 | 1.04 | 0.938
8 | NCI-H1355 | 1.2 | 1.15 |  | 1.1 | 1.25 | 0.483 | 0.606 | 0.506 |  | 0.546 | 0.987 | 0.678 | 0.93 | 1.02 | 0.971 | 0.87 | 0.778 |  | 0.843 | 0.736
